# Columns and labels:
# [1] = background statement, no reference given, cited from earlier work
# Plasmodium falciparum [2] = assay: Activity against the malaria parasite Plasmodium falciparum; conditions: fold versus 1
# Plasmodium falciparum [3] = conditions: cited from earlier work
Structure (SMILES),oral availability [1],half-life in plasma ([1]; plasma),increased activity against Plasmodium falciparum relative to 1 (Plasmodium falciparum [2]),EC50 (Plasmodium falciparum [3])
"O=CN(O)CCCP(=O)(O)O [Compound 1, Fosmidomycin]",poor,~ 1 h,–,–
O=CN(O)CCC(c1ccc(Cl)c(Cl)c1)P(=O)(O)O (stereo not shown) [Compound 8],–,–,> 10 ×,0.09 µM

# From publication PMC3046873 (ACS medicinal chemistry letters, 2011)
